30 compounds from patent US7598384B2, “Tetrahydroquinolinones and their use as antagonists of metabotropic glutamate receptors” (Merz Pharma GmbH & Co. KGAA, priority 2004, dated 2009) can be followed below.

Structures can show the parent of a compound that is named as a salt.

In the case of `CC(C)COc1ccc2c(n1)CC(C)(C)CC2=O.Cl`, the melting point lay in the range of 157 to 158 °C. For the compound `CC1(C)CC(=O)c2ccc(OCc3ccccc3)nc2C1.Cl`, the melting point fell in the range of 87 to 88 °C. Turning to `CC1(C)CC(=O)c2ccc(NCc3ccccc3)nc2C1.Cl`, the melting point is 215 to 216 °C.

`CC1(C)CC(=O)c2ccc(CCc3ccccc3)nc2C1.Cl` registered a melting point of 173 to 175 °C.

Regarding `CC1(C)CC(=O)c2ccc(Cc3ccccc3)nc2C1.Cl`, the melting point lay in the range of 202 to 204 °C. Then `Cl.O=C1CCCc2nc(Cc3ccccc3)ccc21`, with 185 to 187 °C; and `COc1ccccc1CCc1ccc2c(n1)CCCC2=O.Cl`, with 160 to 162 °C; and `Cl.O=C1CCCc2nc(C34CC5CC(CC(C5)C3)C4)ccc21`, with 214 to 216 °C.

`CC1(C)CC(=O)c2ccc(C34CC5CC(CC(C5)C3)C4)nc2C1.Cl`: the melting point lay within 210 to 212 °C. `CC1(C)CC(=O)c2cc(C#N)c(NCc3ccccc3)nc2C1.Cl` had a melting point of 163 to 164 °C. In turn, `CC1(C)CC(=O)c2ccc(OC3CCCCC3)nc2C1.Cl` showed a melting point of 126 to 127 °C. As for `O=C1CC2(CCCCC2)Cc2nc(OCc3ccccc3)ccc21` (as salt: hydrochloride) [Example 25, 2-Benzyloxy-7,7-pentamethylene-7,8-dihydro-6H-quinoline-5-one hydrochloride], the melting point lay within 276 to 277 °C.

As for `O=C1CC2(CCCCC2)Cc2nc(C34CC5CC(CC(C5)C3)C4)ccc21` (as salt: hydrochloride) [Example 27, 2-Adamantan-1-yl-7,7-pentamethylene-7,8-dihydro-6H-quinoline-5-one hydrochloride], the melting point is 221 to 222 °C. Then `CCCCCCc1ccc2c(n1)CC(c1ccc(N(C)C)cc1)CC2=O` (stereo not drawn) (as salt: hydrochloride) [Example 32, 7-(4-Dimethylamino-phenyl)-2-hexyl-7,8-dihydro-6H-quinolin-5-one dihydrochloride], with 195 to 196 °C; and `CC1(C)CCc2nc(C34CC5CC(CC(C5)C3)C4)ccc2C1=O` (as salt: hydrochloride) [Example 41, 2-Adamantan-1-yl-6,6-dimethyl-7,8-dihydro-6H-quinolin-5-one hydrochloride], with 203 to 204 °C.

`CCCCCCc1ccc2c(n1)C(C)CC(C)(C)C2=O` (stereo not drawn) (as salt: hydrochloride) [Example 55, 2-Hexyl-6,6,8-trimethyl-7,8-dihydro-6H-quinolin-5-one hydrochloride] returned a melting point of 199 to 200 °C. Compound `COc1cccc(-c2ccc3c(n2)CC2(CCCC2)CC3=O)c1` (as salt: hydrochloride) [Example 59, 2-(3-Methoxy-phenyl)-7,7-tetramethylene-7,8-dihydro-6H-quinolin-5-one hydrochloride] returned a melting point of 233 to 234 °C. Next, `CCCC1CCc2nc(-c3ccc(OC)cc3)ccc2C1=O` (stereo not drawn) (as salt: hydrochloride) [Example 60, 2-(4-Methoxy-phenyl)-6-propyl-7,8-dihydro-6H-quinolin-5-one hydrochloride]: 212 to 213 °C; `CCC1CC(=O)c2ccc(-c3ccc(OC)cc3)nc2C1` (stereo not drawn) (as salt: hydrochloride) [Example 70, 7-Ethyl-2-(4-methoxy-phenyl)-7,8-dihydro-6H-quinolin-5-one hydrochloride]: 232 to 233 °C; `CCCCSc1nc2c(cc1C#N)C(=O)CC(C)(C)C2` [Example 1, 2-Butylsulfanyl-7,7-dimethyl-5-oxo-5,6,7,8-tetrahydroquinoline-3-carbonitrile]: 50 to 52 °C.

For the compound `CCCSc1nc2c(cc1C#N)C(=O)CC(C)(C)C2` [Example 2, 7,7-Dimethyl-5-oxo-2-propylsulfanyl-5,6,7,8-tetrahydroquinoline-3-carbonitrile], the melting point lay in the range of 100 to 102 °C.

On to `CC(C)Sc1nc2c(cc1C#N)C(=O)CC(C)(C)C2` [Example 3, 2-Isopropylsulfanyl-7,7-dimethyl-5-oxo-5,6,7,8-tetrahydroquinoline-3-carbonitrile], for which the melting point lay in the range of 135 to 136 °C. With `C=C(C)CSc1nc2c(cc1C#N)C(=O)CC(C)(C)C2` [Example 4, 7,7-Dimethyl-2-(2-methylallysulfanyl)-5-oxo-5,6,7,8-tetrahydroquinoline-3-carbonitrile], the melting point lay within 78 to 79 °C. Turning to `CC(C)CSc1nc2c(cc1C#N)C(=O)CC(C)(C)C2` [Example 5, 2-Isobutylsulfanyl-7,7-dimethyl-5-oxo-5,6,7,8-tetrahydroquinoline-3-carbonitrile], the melting point lay in the range of 75 to 76 °C. `C=C(C)CSc1nc2c(cc1C#N)C(=O)CCC2` [Example 6, 2-(2-Methylallylsulfanyl)-5-oxo-5,6,7,8-tetrahydroquinoline-3-carbonitrile] had a melting point of 85 to 86 °C.

`CC1(C)CC(=O)c2cc(C#N)c(N3CCCCC3)nc2C1` [Example 7, 7,7-Dimethyl-5-oxo-2-piperidin-1-yl-5,6,7,8-tetrahydro-quinoline-3-carbonitrile] gave a melting point of 99 to 100 °C. Turning to `COc1ccc(Nc2ccc3c(n2)CC(C)(C)CC3=O)cc1` [Example 86, 2-(4-Methoxy-phenylamino)-7,7-dimethyl-7,8-dihydro-6H-quinolin-5-one], the melting point is 149 to 150 °C. Then `O=C1c2ccc(Nc3ccccc3)nc2CC2CCCCC12` (stereo not drawn) [Example 111, 2-Phenylamino-6,7,8,9,9a,10-hexahydro-5aH-benzo[g]quinolin-5-one], with 214 to 216 °C. `CC(Nc1ccc2c(n1)CC1CCCCC1C2=O)c1ccccc1` (stereo not drawn) [Example 112, 2-(1-Phenyl-ethylamino)-6,7,8,9,9a,10-hexahydro-5aH-benzo[g]quinolin-5-one]: the melting point is 156 to 158 °C. Then `O=C1c2ccc(N3CCN(c4ccccc4)CC3)nc2CC2CCCCC12` (stereo not drawn) [Example 114, 2-(4-Phenyl-piperazin-1-yl)-6,7,8,9,9a,10-hexahydro-5aH-benzo[g]quinolin-5-one], with 164 to 166 °C.

What is called melting point is the temperature, or range, at which the solid turns liquid.
